{"source": "patent US20140221301A1", "about": "“COMBINATION TREATMENT FOR CANCER” (priority 2011, published 2014)", "key": {"[1]": {"experiment": "PK study in mice, single dose i.p.", "details": "mouse, in vivo, ip, single dose 50 mg/kg i.p."}, "[2]": {"tested_on": "leukemia cell lines", "experiment": "Cell growth and viability, MTS assay, leukemia cell lines", "assay_type": "cell-based", "details": "72 hours, tested leukemia cell lines", "method": "(§1) FIG. 1. […] (A) TEX and (B) M9-ENL1 cells were plated in 96-well plates and drugs were added to the wells (5 μL per well) for final concentrations of 10 μM (shown) and 1 μM. Cell growth and viability was measured at 48 hours (M9-ENL-1) and 72 hours (TEX) by MTS assay. Cell viability is shown for each compound as a percent of cells treated with DMSO alone. (C) Leukemia, (D) myeloma, and (E) solid tumor cell lines were seeded in 96-well plates and then treated with increasing concentrations of tigecycline. Cell growth and viability was measured at 72 hours by MTS assay. Cell viability is expressed as mean percentage plus or minus SD (n=3) relative to vehicle-treated cells. […] Cell viability was measured at 72 hours by MTS assay. Cell viability is expressed as mean percentage plus or minus SD (n=3) relative to vehicle-treated cells.\n(§2) Human leukemia (OCI-AML2, HL60, U937) cell lines were maintained in RPMI 1640 medium. Myeloma (LP-1, KMS11, 8226, JJN3, OP-M2) cell lines were maintained in Iscove's media. […]\n(§3) Cell growth and viability was assessed by the MTS assay (Promega, Madison, Wis.) according to the manufacturer's instructions. Apoptosis and cell death was measured by Annexin V-fluroscein isothiocyanate (FITC; Biovision Research Products, Mountain View, Calif.), propidium iodide staining and flow cytometry according to the manufacturer's instructions and as previously described^30."}, "[3]": {"tested_on": "solid tumour cell lines", "experiment": "Cell growth and viability, MTS assay, solid tumour cell lines", "assay_type": "cell-based", "details": "72 hours", "method": "as §1, §2, §3"}, "[4]": {"tested_on": "primary human AML cells", "assay_type": "in vivo, NOD-SCID mice", "method": "FIG. 3. Tigecycline has anti-leukemia activity in vivo. (A, B) Human leukemia cells (OCI-AML2) were injected subcutaneously into the flank of SCID mice. Seven days after injection, once tumors were palpable, mice were treated with tigecycline (50 mg/kg or 100 mg/kg twice daily by i.p. injection) or vehicle control (n=10 per group). Fourteen days after injection of cells, mice were sacrificed, tumors excised and the volume and mass of the tumors were measured. The tumor mass and the mean volume+SD are shown. Differences in tumor volume and mass were analyzed by an unpaired t-test: *p<0.001. (C) Tumours from two control mice, and three tigecycline-treated mice were excised after 5 days of treatment and total proteins were extracted and analyzed by western blotting for Cox-1, Cox-2, Cox-4, and tubulin. […] Following treatment, human leukemia cell engraftment in the injected right femur was measured by FACS analysis for human CD45^+CD19^−CD33^+ cells. […] Six weeks later, human leukemia cell engraftment in the injected right femur was measured by FACS analysis for human CD45^+CD19^−CD33^+cells. […]\nTo assess tigecycline in mouse models of primary AML, primary human AML cells were isolated form a fresh peripheral blood sample from a patient with AML. A frozen aliquot was thawed, counted and resuspended in PBS. […]"}, "[5]": {"tested_on": "Cox-1, Cox-2, Cox-4 mRNA", "experiment": "Quantitative RT-PCR of Cox mRNA", "assay_type": "cell-based, human", "details": "TEX and primary AML cells, 2.5 μM and 5 μM", "method": "FIG. 4. […] (A) Cells from TEX, OCI-AML2 and two primary AML patients were treated with increasing concentrations (2.5 μM and 5 μM) of tigecycline for 36 and 48 hours of tigecycline. Total proteins were extracted and analyzed by western blotting for Cox-1, Cox-2, Cox-4, grp78, XIAP, actin and tubulin. (B) TEX and AML patient cells were treated with increasing concentrations (2.5 μM and 5 μM) of tigecycline. Cox-1, Cox-2, and Cox-4 mRNA expression relative 18S was determined by quantitative RT-PCR. Data is shown as mean±SD. (C) TEX cells were treated with increasing concentrations of tigecycline and chloramphenicol (CAP) for 72 hours. Complex I, II and IV enzyme activity relative to citrate synthase activity was determined as described in materials and methods. (D) Cells from TEX, primary AML patients, and normal donors were treated with increasing concentrations of tigecycline. Mitochondrial membrane potential (ΔΨ) was determined by staining cells with JC-1 dye, and flow cytometry analysis (Red/Green ratio). Reactive oxygen species generation (ROS) was determined by staining with h2-DCFDA and Dihydroethidium (DHE)."}, "[6]": {"details": "rat, in vivo, 30 mg/kg/day; cited from earlier work"}}}
{"compound": "CN(C)c1cc(NC(=O)CNC(C)(C)C)c(O)c2c1C[C@H]1C[C@H]3[C@H](N(C)C)C(O)=C(C(N)=O)C(=O)[C@@]3(O)C(O)=C1C2=O", "note": "[tigecycline]", "values": [{"measurement": "Tmax", "setting": "[1]", "value": "~0.5", "unit": "h"}, {"measurement": "half-life", "setting": "[1]", "value": "~4.5", "unit": "h"}, {"measurement": "IC50", "setting": "[2]", "value": "5 to 8", "unit": "µM"}, {"measurement": "IC50", "setting": "[3]", "value": "> 10", "unit": "µM"}, {"measurement": "engraftment of human AML primary cells (CD45+CD33+CD19-)", "setting": "[4]; 100 mg/kg i.p. daily for three weeks", "value": "significantly decreased"}, {"measurement": "toxicity in treated mice", "setting": "[4]; mouse, in vivo", "value": "without gross organ toxicity or loss of body weight"}, {"measurement": "mRNA expression of Cox-1, Cox-2 over Cox-4", "setting": "[5]", "value": "preferential increased mRNA expression"}, {"measurement": "toxicology findings", "setting": "[6]", "value": "reversible anemia, thrombocytopenia, and leucopenia with a hypocellular bone marrow"}]}
